Reference: patent publication US6903052B2, “Nematicidal compositions and methods” (Divergence, Inc., priority 2002, dated 2005)

Tests used:
C. elegans [1] = assay: Nematicidal activity of emulsions made with Tween-20 (replacing Igepal CO 630) against C. elegans; format: cell-based, Caenorhabditis elegans; conditions: Tween-20 emulsion
Experimental: Some nematodes assayed as described in Example 9 lacked tolerance to emulsions made with the surfactant Igepal CO 630. For this reason some assays were repeated with Tween-20-based emulsions.
(§1) Briefly, 1 ml 1% stock solution emulsions were prepared by mixing 10 μl of fatty acid methyl ester with 20 μl of the surfactant Tween-20 in a 1.5 ml eppendorf tube. After careful mixing of fatty acid and Tween-20, 850 μl of ddH20 was added and mixed by gentle pipetting until a homogeneous solution was obtained. Finally, 120 μl of pure isopropanol was added and mixed by gentle pipetting. This stock solution was then used to produce various fatty acid methyl ester dilution emulsions in 24-well plate assays.

M. incognita [2] = assay: Nematicidal activity of fatty acid methyl ester emulsions, spectrum (Example 8); format: cell-based, Meloidogyne incognita; conditions: M. incognita 2nd stage juveniles, 0.1% solution; scored at 48 hours
Experimental: (§2) Briefly, the indicated fatty acid emulsions were added and rapidly mixed by swirling. Nematode viability was scored by visual observation and motility assays 24 hours following addition of emulsions (48 hours for plant parasitic nematodes Meloidogyne and Heterodera species). The fatty acid emulsions tested were methyl esters of nonanoic (pelargonic) acid, ricinelaidic acid, ricinoleic acid, vernolic acid, linoleic acid, and oleic acid. […] Results shown are mean % values obtained from multiple independent experiments
(§3) The Caenorhabiditis elegans were mixed stage populations. Similar effects seen on several other free-living nematode species. The Parastrongyloides trichosuri (parasite of Australian bushtail possum) were dauer-like infective 3rd stage larva. Similar effects are also seen against free-living stages. The Meloidogyne incognita and Meloidogyne javanica (root knot nematode) were 2nd stage juveniles (dauer-like infective stage). The Heterodera glycines (soybean cyst nematode) were 2nd stage juveniles (dauer-like infective stage). Finally, the Pratylenchus scribneri (corn lesion nematode) were mixed stage populations.

H. glycines = assay: as above; format: cell-based, Heterodera glycines; conditions: H. glycines 2nd stage juveniles, scored at 48 hours
Experimental: as §2, §3

M. javanica [3] = assay: as above; format: cell-based, Meloidogyne javanica; conditions: M. javanica 2nd stage juveniles, 0.1% solution; scored at 48 hours
Experimental: as §2, §3

C. elegans [4] = assay: as above; format: cell-based, Caenorhabditis elegans; conditions: C. elegans mixed stage
Experimental: as §2, §3

M. incognita [5] = assay: Nematicidal activity of fatty acid methyl ester emulsions against root knot nematode J2 larvae (Example 6); format: cell-based, Meloidogyne incognita; conditions: 0.1% emulsion; 48 hours incubation, counted about 24 hours after transfer to plates
Experimental: as §1, with “Fatty acid methyl ester emulsions were prepared following the teachings of Kim et al (U.S. Pat. No. 5,698,592). Briefly,” for “Briefly,”, “Igepal CO 630” for “Tween-20”, “Igepal CO 630,” for “Tween-20,”
(§4) Meloidogyne incognita and javanica were prepared from tomato roots. The roots were bleached and the debris was separated from the J2 larvae and eggs by filtration followed by sucrose density gradient centrifugation. Eggs were hatched over 4 days at 15° C. and the J2 larvae were collected by passage though a filter, followed by centrifugation.
(§5) Nematodes and emulsions were incubated with shaking at room temperature for 48 hours. The contents of each well were transferred to a small spot on individual NGM plates lacking bacteria. About 24 hours after the transfer to plates, worms on and off the inoculation spot were counted as not viable or viable, respectively. Worms were considered viable if they had crawled away from the inoculation spot, or if they were moving. Worms were considered non-viable if they remained at the inoculation spot.

P. scribneri = assay: Nematicidal activity of fatty acid methyl ester emulsions, spectrum (Example 8); format: cell-based, Pratylenchus scribneri; conditions: P. scribneri mixed stage
Experimental: as §2, §3

M. javanica [6] = assay: Nematicidal activity of fatty acid methyl ester emulsions against root knot nematode J2 larvae (Example 6); format: cell-based, Meloidogyne javanica; conditions: 0.1% emulsion; 48 hours incubation, counted about 24 hours after transfer to plates
Experimental: as §1, with “Fatty acid methyl ester emulsions were prepared following the teachings of Kim et al (U.S. Pat. No. 5,698,592). Briefly,” for “Briefly,”, “Igepal CO 630” for “Tween-20”, “Igepal CO 630,” for “Tween-20,”
as §4, §5

[7] = tested on: root knot nematodes (Meloidogyne spp.); assay: Nematicidal activity against root knot nematodes, summary statement; format: cell-based; conditions: concentration of 0.1%
Experimental: as §4, §5

tomato seedlings = assay: Phytotoxicity evaluation on tomato seedlings; format: in vivo; conditions: for Phytotoxic effect on tomato seedlings: 1% emulsion
Experimental: Sterilized tomato seeds were germinated in magenta jars containing Gamborg's agar media. After two weeks of growth, seedlings were treated with 250 μl of 1% fatty acid methyl ester emulsion (nonanoic acid, ricinoleic acid, ricinelaidic acid, oleic acid, or a control emulsion lacking any fatty acid), applied directly to the stem-media interface. Tomato seedlings were scored at various times after application of emulsions.

C. elegans [8] = assay: Nematicidal activity of single fatty acid methyl ester emulsions against Caenorhabditis elegans (Example 4); format: cell-based
Experimental: Mixed stage Caenorhabditis elegans were washed off plates seeded with OP50 bacteria using M9 solution. 250 μl of the M9 solution, which contained about 50 worms, was pipetted into each well of a 24-well plate.
as §1, with “Fatty acid methyl ester emulsions were prepared following the teachings of Kim et al (U.S. Pat. No. 5,698,592). Briefly,” for “Briefly,”, “Igepal CO 630” for “Tween-20”, “Igepal CO 630,” for “Tween-20,”
To each well, fatty acid emulsions or control emulsions were added and rapidly mixed by swirling. Nematode viability was scored by visual observation and motility assays at various time points 24 hours following addition of emulsions or controls. The fatty acid emulsions tested were methyl esters of nonanoic (pelargonic) acid, ricinoleic acid, vernolic acid, linoleic acid, oleic acid, and control emulsions lacking fatty acids.

Compound: CCCCCCCCC(=O)OC [Nonanoic (C9-methyl ester), pelargonic acid methyl ester, reference compound]
- % Worm Death (24 hr) (C. elegans [1]; 0.001% solution): 30%
- % Worm Death (24 hr) (C. elegans [1]; 0.01% solution): 100%
- % Worm Death (24 hr) (C. elegans [1]; 0.1% solution): 100%
- % Worm Death (24 hr) (M. incognita [2]): 100%
- % Worm Death (24 hr) (H. glycines; 0.01% solution): >95%
- % Worm Death (24 hr) (H. glycines; 0.1% solution): 100%
- % Worm Death (48 hr) (M. javanica [3]): 100%
- % Worm Death (24 hr) (C. elegans [4]; 0.001% solution): 30%
- % Worm Death (24 hr) (C. elegans [4]; 0.01% solution): 100%
- % Worm Death (24 hr) (C. elegans [4]; 0.1% solution): 100%
- M. incognita (% not viable) (M. incognita [5]): 100%
- % Worm Death (24 hr) (P. scribneri; 0.01% solution): <20%
- % Worm Death (24 hr) (P. scribneri; 0.1% solution): <20%
- M. javanica (% not viable) (M. javanica [6]): 100%
- Nematicidal activity (in words) [7]: significant nematicidal activity
- Phytotoxic effect on tomato seedlings (tomato seedlings; within 18 hours of application): distinct loss of turgor pressure (wilting phenotype)
- Phytotoxic effect on tomato seedlings (tomato seedlings; within 24 hours): almost entirely bleached to a pale white color and had nearly totally collapsed
- Visible effects on tomato seedlings (tomato seedlings; 250 μl of 1% emulsion applied to stem-media interface of two-week seedlings): showed obvious effects on the tomatoes
- Percentage of Worm Death (C. elegans [8]; 0.003% emulsion, 1 hr): 50%
- Percentage of Worm Death (C. elegans [8]; 0.003% emulsion, 6 hr): 50%
- Percentage of Worm Death (C. elegans [8]; 0.003% emulsion, 24 hr): 50%
- Percentage of Worm Death (C. elegans [8]; 0.1% emulsion, 1 hr): 100%
- Percentage of Worm Death (C. elegans [8]; 0.1% emulsion, 6 hr): 100%
- Percentage of Worm Death (C. elegans [8]; 0.1% emulsion, 24 hr): 100%
- Nematicidal activity (in words) (C. elegans [8]; concentration of 0.1%): strongly nematicidal
- Onset of effect on nematode movement (in words) (C. elegans [8]; emulsion, C. elegans): almost immediate cessation of nematode movement and subsequent death
